From PubChem BioAssay (NCI)
Where “and” joins values, the source holds several entries; their conditions need not be identical. Equal values may be shown once.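 1) Cells in 96-well plates. 2) Compound, 48 h, 5 concentrations. 3) Linear interpolation between surrounding doses. 4) Unreached endpoint = highest concentration. GI50: concentration for 50% inhibition of growth. Definition used: TGI = concentration required for complete inhibition of growth.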

Columns and labels:
Test in all cases: inhibition of tumour cell growth, NCI panel, 48 h
UO-31 renal = test system: UO-31 renal
HCC-2998 colon = test system: HCC-2998 colon
786-0 renal = test system: 786-0 renal
NCI-H226 lung = test system: NCI-H226 lung
TK-10 renal = test system: TK-10 renal
SK-MEL-2 melanoma = test system: SK-MEL-2 melanoma
OVCAR-3 ovarian = test system: OVCAR-3 ovarian
ACHN renal = test system: ACHN renal
UACC-62 melanoma = test system: UACC-62 melanoma
OVCAR-8 ovarian = test system: OVCAR-8 ovarian
BT-549 breast = test system: BT-549 breast
KM12 colon = test system: KM12 colon
HOP-92 NSCLC = test system: HOP-92 NSCLC
CCRF-CEM leukemia = test system: CCRF-CEM leukemia
SF-268 CNS = test system: SF-268 CNS
HL-60(TB) leukemia = test system: HL-60(TB) leukemia
NCI/ADR-RES ovarian = test system: NCI/ADR-RES ovarian
NCI-H23 lung = test system: NCI-H23 lung
SK-OV-3 ovarian = test system: SK-OV-3 ovarian
MALME-3M melanoma = test system: MALME-3M melanoma
M14 melanoma = test system: M14 melanoma
EKVX NSCLC = test system: EKVX NSCLC
OVCAR-5 ovarian = test system: OVCAR-5 ovarian
SR leukemia = test system: SR leukemia
LOX IMVI melanoma = test system: LOX IMVI melanoma
HCT-116 colon = test system: HCT-116 colon
NCI-H460 lung = test system: NCI-H460 lung
SK-MEL-28 melanoma = test system: SK-MEL-28 melanoma
SF-539 CNS = test system: SF-539 CNS
MDA-MB-231 breast = test system: MDA-MB-231 breast
MDA-MB-435 = test system: MDA-MB-435
MOLT-4 leukemia = test system: MOLT-4 leukemia
K-562 leukemia = test system: K-562 leukemia
MDA-MB-468 breast = test system: MDA-MB-468 breast
HCT-15 colon = test system: HCT-15 colon
T-47D breast = test system: T-47D breast
HOP-62 NSCLC = test system: HOP-62 NSCLC
DU-145 prostate = test system: DU-145 prostate
UACC-257 melanoma = test system: UACC-257 melanoma
HS 578T breast = test system: HS 578T breast
RPMI-8226 leukemia = test system: RPMI-8226 leukemia
U251 CNS = test system: U251 CNS
OVCAR-4 ovarian = test system: OVCAR-4 ovarian
SN12C renal = test system: SN12C renal
SF-295 CNS = test system: SF-295 CNS
MCF7 breast = test system: MCF7 breast
SNB-75 CNS = test system: SNB-75 CNS
CAKI-1 renal = test system: CAKI-1 renal
RXF 393 renal = test system: RXF 393 renal
PC-3 prostate = test system: PC-3 prostate
NCI-H522 lung = test system: NCI-H522 lung
IGROV1 ovarian = test system: IGROV1 ovarian
HT29 colon = test system: HT29 colon
COLO 205 colon = test system: COLO 205 colon
A498 renal = test system: A498 renal
A549 NSCLC = test system: A549 NSCLC
SNB-19 CNS = test system: SNB-19 CNS
SW-620 colon = test system: SW-620 colon
SK-MEL-5 melanoma = test system: SK-MEL-5 melanoma

In the case of COc1cc2cc(C(=O)N3C[C@@H](CCl)c4c3cc(OC(=O)N(CCC(=O)N3CCN(C)CC3)[C@H]3CCSSC3)c3ccccc43)[nH]c2c(OC)c1OC, the GI50 (UO-31 renal) is reported as 333 nM and 221 nM, the TGI (UO-31 renal) is reported as 948 nM and 545 nM and the GI50 (HCC-2998 colon) is reported as 154 nM and 158 nM. The TGI (HCC-2998 colon) was 579 nM and 331 nM, the GI50 (786-0 renal) was 368 nM and the TGI (786-0 renal) was 1340 nM. For the same compound, the GI50 (NCI-H226 lung) was 1570 nM and 435 nM, the TGI (NCI-H226 lung) was 25000 nM and 4470 nM and the GI50 (TK-10 renal) was 3370 nM. The TGI (TK-10 renal) was 11000 nM, the GI50 (SK-MEL-2 melanoma) was 417 nM and 214 nM and the TGI (SK-MEL-2 melanoma) was 777 nM and 381 nM. For the same compound, the GI50 (OVCAR-3 ovarian) was 236 nM, the TGI (OVCAR-3 ovarian) was 581 nM and the GI50 (ACHN renal) was 83.1 nM. For the same compound, the TGI (ACHN renal) was 571 nM, the GI50 (UACC-62 melanoma) was 259 nM and 271 nM and the TGI (UACC-62 melanoma) was 587 nM and 1220 nM. For the same compound, the GI50 (OVCAR-8 ovarian) was 275 nM and 186 nM, the GI50 (BT-549 breast) was 361 nM and 228 nM and the TGI (BT-549 breast) was 799 nM and 989 nM. The GI50 (KM12 colon) was 535 nM and 268 nM, the TGI (KM12 colon) was 1640 nM and 1050 nM and the GI50 (HOP-92 NSCLC) was 657 nM and 346 nM. For the same compound, the TGI (HOP-92 NSCLC) was 2130 nM and 1830 nM, the GI50 (CCRF-CEM leukemia) was 559 nM and 219 nM and the GI50 (SF-268 CNS) was 403 nM and 187 nM. For the same compound, the GI50 (HL-60(TB) leukemia) was 325 nM and 119 nM, the TGI (HL-60(TB) leukemia) was 2790 nM and 952 nM and the GI50 (NCI/ADR-RES ovarian) was 292 nM. For the same compound, the TGI (NCI/ADR-RES ovarian) was 940 nM, the GI50 (NCI-H23 lung) was 75.9 nM and 55.3 nM and the TGI (NCI-H23 lung) was 358 nM and 254 nM. For the same compound, the GI50 (SK-OV-3 ovarian) was 313 nM and 262 nM, the TGI (SK-OV-3 ovarian) was 1310 nM and 714 nM and the GI50 (MALME-3M melanoma) was 405 nM and 280 nM. The TGI (MALME-3M melanoma) was 796 nM and 744 nM, the GI50 (M14 melanoma) was 317 nM and 192 nM and the TGI (M14 melanoma) was 824 nM and 545 nM. For the same compound, the GI50 (EKVX NSCLC) was 365 nM and 315 nM, the TGI (EKVX NSCLC) was 1040 nM and 1900 nM and the GI50 (OVCAR-5 ovarian) was 560 nM. The TGI (OVCAR-5 ovarian) was 1750 nM, the GI50 (SR leukemia) was 56.7 nM and 34.2 nM and the GI50 (LOX IMVI melanoma) was 295 nM and 208 nM. For the same compound, the TGI (LOX IMVI melanoma) was 781 nM and 891 nM, the GI50 (HCT-116 colon) was 389 nM and 158 nM and the TGI (HCT-116 colon) was 3620 nM and 558 nM. The GI50 (NCI-H460 lung) was 99.6 nM and 55.7 nM, the TGI (NCI-H460 lung) was 2580 nM and 341 nM and the GI50 (SK-MEL-28 melanoma) was 413 nM and 293 nM. For the same compound, the TGI (SK-MEL-28 melanoma) was 846 nM and 826 nM, the GI50 (SF-539 CNS) was 284 nM and 167 nM and the TGI (SF-539 CNS) was 642 nM and 409 nM. The GI50 (MDA-MB-231 breast) was 516 nM and 579 nM, the TGI (MDA-MB-231 breast) was 1140 nM and 8190 nM and the GI50 (MDA-MB-435) was 404 nM and 213 nM. The TGI (MDA-MB-435) was 788 nM and 529 nM, the GI50 (MOLT-4 leukemia) was 113 nM and 89.7 nM and the GI50 (K-562 leukemia) was 604 nM and 162 nM. For the same compound, the TGI (K-562 leukemia) was 25000 nM and > 100000 nM, the GI50 (MDA-MB-468 breast) was 167 nM and the TGI (MDA-MB-468 breast) was 389 nM. For the same compound, the GI50 (HCT-15 colon) was 271 nM and 260 nM, the TGI (HCT-15 colon) was 1110 nM and 1430 nM and the GI50 (T-47D breast) was 631 nM and 696 nM. For the same compound, the TGI (T-47D breast) was 25000 nM and 7830 nM, the GI50 (HOP-62 NSCLC) was 166 nM and 110 nM and the TGI (HOP-62 NSCLC) was 1280 nM and 780 nM. For the same compound, the GI50 (DU-145 prostate) was 113 nM and 58.5 nM, the TGI (DU-145 prostate) was 3390 nM and 1490 nM and the GI50 (UACC-257 melanoma) was 475 nM and 630 nM. The TGI (UACC-257 melanoma) was 1150 nM and 3710 nM, the GI50 (HS 578T breast) was 689 nM and 1410 nM and the TGI (HS 578T breast) was 3920 nM and 6080 nM. The GI50 (RPMI-8226 leukemia) was 477 nM and 222 nM, the TGI (RPMI-8226 leukemia) was 1850 nM and 1360 nM and the GI50 (U251 CNS) was 299 nM and 164 nM. The TGI (U251 CNS) was 2800 nM and 423 nM, the GI50 (OVCAR-4 ovarian) was 513 nM and 464 nM and the TGI (OVCAR-4 ovarian) was 1270 nM and 4990 nM. The GI50 (SN12C renal) was 241 nM and 286 nM, the GI50 (SF-295 CNS) was 113 nM and 145 nM and the TGI (SF-295 CNS) was 1750 nM and 545 nM. For the same compound, the GI50 (MCF7 breast) was 55.7 nM and 35.3 nM, the TGI (MCF7 breast) was 652 nM and 1100 nM and the GI50 (SNB-75 CNS) was 388 nM and 181 nM. The TGI (SNB-75 CNS) was 1080 nM and 905 nM, the GI50 (CAKI-1 renal) was 272 nM and the TGI (CAKI-1 renal) was 4490 nM. For the same compound, the GI50 (RXF 393 renal) was 322 nM and 149 nM, the TGI (RXF 393 renal) was 724 nM and 297 nM and the GI50 (PC-3 prostate) was 480 nM and 722 nM. For the same compound, the TGI (PC-3 prostate) was 6150 nM and 6130 nM, the GI50 (NCI-H522 lung) was 433 nM and 263 nM and the TGI (NCI-H522 lung) was 1110 nM and 979 nM. For the same compound, the GI50 (IGROV1 ovarian) was 436 nM and 501 nM, the GI50 (HT29 colon) was 474 nM and 270 nM and the TGI (HT29 colon) was 1730 nM and 1050 nM. The GI50 (COLO 205 colon) was 354 nM and 342 nM, the TGI (COLO 205 colon) was 837 nM and 1510 nM and the GI50 (A498 renal) was 251 nM. The TGI (A498 renal) was 541 nM, the GI50 (A549 NSCLC) was 393 nM and the TGI (A549 NSCLC) was 1630 nM. The GI50 (SNB-19 CNS) was 258 nM and 252 nM, the GI50 (SW-620 colon) was 399 nM and 221 nM and the TGI (SW-620 colon) was 1900 nM and 911 nM. The GI50 (SK-MEL-5 melanoma) was 327 nM and the TGI (SK-MEL-5 melanoma) was 656 nM.
